The values that follow come from patent US20030180295A1, “Angiocidin: a Cys-Ser-Val-Thr-Cys-Gly specific tumor cell adhesion receptor” (Philadelphia Health and Education Corporation, priority 1999, published 2003).

Assay [1] relates to Bovine aortic endothelial cells (BAEC). Put plainly: Microvessel stability in collagen matrix. Type of assay: cell-based. To be noted: added after 24 hours of microvessel formation, read after additional 24 hours. Here is the method: An experiment was performed to evaluate the effect of angiocidin on angiogenesis. Bovine aortic endothelial cells (BAEC) were plated on a collagen matrix. Next, the cells were over-layered with collagen. Angiocidin (37 μg/ml) was added on top of the cells in the treatment plate, and the control plate only received buffer. After 24 hours, phase contrast photomicrographs (200×) were taken. In the control plate, the BAEC cells rearranged themselves into a network of microvessels. […] The experiment in this example was performed as in Example 16, however, no treatment was given to the cells initially. After 24 hours, microvessels formed in both samples, and looked similar to the control plate in FIG. 19. Buffer and angiocidin were then added to the control and treatment plates, respectively. After an additional 24 hours, Hoffman interference photomicrographs were taken. Here, the control was not affected.

Assay [2] concerns MCF7 human breast carcinoma cells (MCF7). The experiment in a line: ALAMAR BLUE cell viability assay. As to conditions: 37 μg/ml, 24 hours. It counts as cell-based. Here is the method: (§1) Bovine aortic endothelial cells (BAEC), human umbilical vein endothelial cells (HUVEC), fibroblast cells, A549 human lung carcinoma cells (A549), MDA-MB231 human breast carcinoma cells (MB231), MCF7 human breast carcinoma cells (MCF7) were treated with 37 μg/ml of receptor, or buffer alone, for 24 hours. Viability of the cells was measured using the ALAMAR BLUE™ assay, which measures the capacity of cells to metabolize the ALAMAR BLUE™ dye. The ALAMAR BLUE™ assay (available from Biosource International, Camarillo, Calif.) quantitatively measures the proliferation of cell lines and can establish the relative cytotoxicity of chemical agents. The assay incorporates a fluorometric/colorimetric growth indicator based on detection of metabolic activity. The system incorporates an oxidation-reduction (redox) indicator that both fluoresces and changes color in response to chemical reduction of growth medium resulting from cell growth. This causes the redox indicator to change from its oxidized, non-fluorescent, blue form to its reduced, fluorescent, red form. Data can be collected using either fluorescence-based instrumentation (530-560 nm excitation wavelength and 590 nm emission wavelength) or absorbance-based instrumentation (570 nm and 600 nm).
(In general: Resazurin is reduced to fluorescent resorufin, in cell work by metabolically active cells.)

For another assay, the system named is Lewis lung carcinoma. The experiment in a line: Growth of Lewis lung carcinoma flank tumors. It counts as in vivo, mice. As to conditions: 50 μg IV on days 1, 3, 5. From the text:
Ten animals were subcutaneously injected in the flank with […] Lewis lung carcinoma cells. Evaluation of flank tumors is a well recognized model for angiogenesis, because flank tumors are highly dependent on angiogenesis. O'Reilly, M. S., Angiostatin: A Novel Angiogenesis Inhibitor that Mediates the Suppression of Metastasis by a Lewis Lung Carcinoma, Cell 79: 315-28 (1994). After 9 days when a palpable tumor developed, mice were divided into two groups of 5 animals per group. One group of 5 mice were treated with an IV injection of 50 μg of angiocidin in Hepes buffered saline. The control group was treated with Hepes buffered saline. Mice were treated on days 1, 3, and 5 after the groups were divided, and sacrificed on day 7.
The tumors were embedded in paraffin and cut into 5 micron sections. The sections were stained with hemotoxylin and eosin. Hemotoxylin stains DNA blue, and eosin stains protein pink. FIG. 36 illustrates the difference between control (panels A and C) and angiocidin (panels B and D) treated cells. Panels A and B are at a magnification of 400×under a light microscope and panels C and D are at a magnification of 200×under a light microscope.

The subject of assay [3] is Bovine aortic endothelial cells (BAEC). Put plainly: Collagen matrix angiogenesis assay (microvessel formation). It counts as cell-based. As to conditions: 37 μg/ml, 24 hours. Here is the method:
An experiment was performed to evaluate the effect of angiocidin on angiogenesis. Bovine aortic endothelial cells (BAEC) were plated on a collagen matrix. Next, the cells were over-layered with collagen. Angiocidin (37 μg/ml) was added on top of the cells in the treatment plate, and the control plate only received buffer. After 24 hours, phase contrast photomicrographs (200×) were taken. In the control plate, the BAEC cells rearranged themselves into a network of microvessels. […] This collagen assay is a well recognized model for angiogenesis. Qian et al., Thrombospondin-1 modulates angiogenesis in vitro by up-regulation of matrix metalloproteinase-9 in endothelial cells, Exp. Cell Res. 235:403-412 (1997).

The target in assay [4] is T1, biotin-angiocidin complex binding to TSP-1 (Homo sapiens, UniProt P55036, INS254GER).
T1 sequence (P55036 with tags, fused parts or gaps INS254GER): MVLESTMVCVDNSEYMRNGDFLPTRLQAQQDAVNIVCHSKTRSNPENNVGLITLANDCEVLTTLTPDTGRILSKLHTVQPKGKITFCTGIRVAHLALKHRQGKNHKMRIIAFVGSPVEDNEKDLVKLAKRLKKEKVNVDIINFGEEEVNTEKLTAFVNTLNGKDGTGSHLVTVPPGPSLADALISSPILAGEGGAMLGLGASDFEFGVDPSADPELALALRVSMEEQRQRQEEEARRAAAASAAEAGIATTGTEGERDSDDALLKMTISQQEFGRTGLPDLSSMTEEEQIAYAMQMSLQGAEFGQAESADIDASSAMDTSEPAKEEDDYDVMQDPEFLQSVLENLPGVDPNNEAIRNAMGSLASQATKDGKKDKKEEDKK
Put plainly: Biotin-avidin receptor binding assay: competition. As to conditions: Example 23, FIGS. 29 and 30. The protocol: In the following experiments, TSP-1 was covalently bound to a substrate, biotinylated angiocidin was added to the plate, and avidin-peroxidase was added to measure how much biotinylated angiocidin was attached to the TSP-1. The avidin-peroxidase was measured using a spectrophotometer at an absorbance of 450 nm.
Free angiocidin was added to the system to compete with the biotinylated angiocid in. […] Immobilized BSA was used as a negative control.
The TSP-1 peptide Cys-Ser-Val-Thr-Cys-Gly (SEQ ID NO: 1) was added to the system to compete with the TSP-1 on the plate for binding with the biotinylated angiocidin. The scrambled peptide Val-Cys-Thr-Gly-Ser-Cys (SEQ ID NO: 15) was used as a negative control and had no effect.
The avidin-biotin system discussed above was used to evaluate the competitive effect of various peptides on the binding of TSP-1 and angiocidin. […] The scrambled peptide Val-Cys-Thr-Gly-Ser-Cys-Gly (SEQ ID NO: 21) and the d-orientation peptide d-Cys-Ser-Val-Thr-Cys-Gly (SEQ ID NO: 22) were used as negative controls.

The test system of assay [5] is Lung Human Microvascular Endothelial Cells (HMVEC-L). Put plainly: ALAMAR BLUE cell viability assay. Type of assay: cell-based. As to conditions: Example 26.
For assay [6], the system named is mouse Lewis lung carcinoma cells. The experiment in a line: ALAMAR BLUE cell viability assay. Type of assay: cell-based. To be noted: 0 to 37 μg/ml, 24 hours. The protocol:
as §1, with “This causes the redox indicator to change from its oxidized, non-fluorescent, blue form to its reduced, fluorescent, red form.” left out
BAEC and BSM cells were treated with increasing concentrations of angiocidin (0, 0.625, 1.25, 2.5, 5, 15, 26 and 37 μg/ml) for 24 hours. Cell viability was measured using the ALAMAR BLUE Tm assay. […]

As to “angiocidin: Cys-Ser-Val-Thr-Cys-Gly (SEQ ID NO: 1)-specific thrombospondin (TSP-1) receptor protein; recombinant form of SEQ ID NO: 2 used in the Examples”, the “stability of formed microvessels” value in assay [1] is reported as “disrupted the microvessels that had already formed”. The cell viability result is reported as “No significant difference” in assay [2], “negative effect on the viability of both cell lines” in assay [5] and “does not affect the Lewis lung cells” in assay [6]. Further, the “tumor histology (hemotoxylin and eosin)” value with Lewis lung carcinoma was “significant necrosis and cell death”. Besides, the “tumor growth (relative tumor volumes)” value with Lewis lung carcinoma (7 day treatment period) is “grew only slightly and at a linear rate”. Moreover, the flank tumor size result with Lewis lung carcinoma (sacrificed day 7) is on record as “much smaller than the control mice”. The microvessel formation entry in assay [3] is “the microvessels did not form and the cells appeared dead”. In addition, the “competition of biotin-angiocidin binding to TSP-1” value in assay [4] is “the binding decreased linearly”.
